The values that follow come from US8492392B2, “Alkoxy tetrahydro-pyridopyrimidine PDE10 inhibitors” (Merck Sharp & Dohme Corp., priority 2009, dated 2013).

This test deals with human PDE10A2 (Homo sapiens (Human), UniProt Q9Y233). In words: PDE10 fluorescence polarization (IMAP FP) inhibition assay. The format is biochemical. Particulars: FAM-labeled cAMP substrate 50 nM, room temperature, apparent inhibition constant; read-out: PDE10A Ki. The procedure:
The activity of the compounds in accordance with the present invention as PDE10 inhibitors may be readily determined without undue experimentation using a fluorescence polarization (FP) methodology that is well known in the art (Huang, W., et al., J. Biomol Screen, 2002, 7: 215).
In a typical experiment the PDE10 inhibitory activity of the compounds of the present invention was determined in accordance with the following experimental method. PDE10A2 was amplified from human fetal brain cDNA (Clontech, Mountain View, Calif.) using a forward primer corresponding to nucleotides 56-77 of human PDE10A2 (Accession No. AF127480, Genbank Identifier 4894716), containing a Kozak consensus sequence, and a reverse primer corresponding to nucleotides 2406-2413 of human PDE10A2 (Accession No. AF127480, Genbank Identifier 4894716). Amplification with Easy-A polymerase (Stratagene, La Jolla, Calif.) was 95° C. for 2 minutes followed by thirty three cycles of 95° C. for 40 seconds, 55° C. for 30 seconds, and 72° C. for 2 minutes 48 seconds. Final extension was 72° C. for 7 minutes. The PCR product was TA cloned into pcDNA3.2-TOPO (Invitrogen, Carlsbad, Calif.) according to standard protocol. AD293 cells with 70-80% confluency were transiently transfected with human PDE10A2/pcDNA3.2-TOPO using Lipofectamine 2000 according to manufacturer specifications (Invitrogen, Carlsbad, Calif.). Cells were harvested 48 hours post-transfection and lysed by sonication (setting 3, 10×5 sec pulses) in a buffer containing 20 mM HEPES, 1 mM EDTA and protease inhibitor cocktail (Roche). Lysate was collected by centrifugation at 75,000×g for 20 minutes. Supernatant containing the cytoplasmic fraction was used for evaluation of PDE10A2 activity. The fluorescence polarization assay for cyclic nucleotide phosphodiesterases was performed using an IMAP® FP kit supplied by Molecular Devices, Sunnyvale, Calif. (product #R8139). IMAP® technology has been applied previously to phosphodiesterase assays (Huang, W., et al., J. Biomol Screen, 2002, 7: 215). Assays were performed at room temperature in 384-well microtiter plates with an incubation volume of 20.2 μL. Solutions of test compounds were prepared in DMSO and serially diluted with DMSO to yield 8 μL of each of 10 solutions differing by 3-fold in concentration, at 32 serial dilutions per plate. 100% inhibition is determined using a known PDE10 inhibitor, which can be any compound that is present at 5,000 times its Ki value in the assay described as follows, such as papaverine (see Siuciak, et al. Neuropharmacology (2006) 51:386-396; Becker, et al. Behav Brain Res (2008) 186(2):155-60; Threlfell, et al., J Pharmacol Exp Ther (2009) 328(3):785-795), 2-{4-[pyridin-4-yl-1-(2,2,2-trifluoroethyl)-1H-pyrazol-3-yl]phenoxymethyl}quinoline succinic acid or 2-[4-(1-methyl-4-pyridin-4-yl-1H-pyrazol-3-yl)-phenoxymethyl]quinoline succinic acid (see Schmidt, et al. J Pharmacol Exp Ther (2008) 325:681-690; Threlfell, et al., J Pharmacol Exp Ther (2009) 328(3): 785-795). 0% of inhibition is determined by using DMSO (1% final concentrations).
A Labcyte Echo 555 (Labcyte, Sunnyvale, Calif.) is used to dispense 200 nL from each well of the titration plate to the 384 well assay plate. A solution of enzyme (1/1600 dilution from aliquots; sufficient to produce 20% substrate conversion) and a separate solution of FAM-labeled cAMP PDE from Molecular Devices (product #R7506), at a final concentration of 50 nM are made in the assay buffer (10 mM Tris HCl, pH 7.2, 10 mM MgCl2, 0.05% NaN3 0.01% Tween-20, and 1 mM DTT). The enzyme and the substrate are then added to the assay plates in two consecutive additions of 10 μL, and then shaken to mix. The reaction is allowed to proceed at room temperature for 30 minutes. A binding solution is then made from the kit components, comprised of 80% Solution A, 20% Solution B and binding reagent at a volume of 1/600 the total binding solution. […]
(In general: Fluorescence polarisation rises when a labelled molecule tumbles more slowly, as on binding a larger partner.)

Sequence of human PDE10A2 (Q9Y233 267-1055): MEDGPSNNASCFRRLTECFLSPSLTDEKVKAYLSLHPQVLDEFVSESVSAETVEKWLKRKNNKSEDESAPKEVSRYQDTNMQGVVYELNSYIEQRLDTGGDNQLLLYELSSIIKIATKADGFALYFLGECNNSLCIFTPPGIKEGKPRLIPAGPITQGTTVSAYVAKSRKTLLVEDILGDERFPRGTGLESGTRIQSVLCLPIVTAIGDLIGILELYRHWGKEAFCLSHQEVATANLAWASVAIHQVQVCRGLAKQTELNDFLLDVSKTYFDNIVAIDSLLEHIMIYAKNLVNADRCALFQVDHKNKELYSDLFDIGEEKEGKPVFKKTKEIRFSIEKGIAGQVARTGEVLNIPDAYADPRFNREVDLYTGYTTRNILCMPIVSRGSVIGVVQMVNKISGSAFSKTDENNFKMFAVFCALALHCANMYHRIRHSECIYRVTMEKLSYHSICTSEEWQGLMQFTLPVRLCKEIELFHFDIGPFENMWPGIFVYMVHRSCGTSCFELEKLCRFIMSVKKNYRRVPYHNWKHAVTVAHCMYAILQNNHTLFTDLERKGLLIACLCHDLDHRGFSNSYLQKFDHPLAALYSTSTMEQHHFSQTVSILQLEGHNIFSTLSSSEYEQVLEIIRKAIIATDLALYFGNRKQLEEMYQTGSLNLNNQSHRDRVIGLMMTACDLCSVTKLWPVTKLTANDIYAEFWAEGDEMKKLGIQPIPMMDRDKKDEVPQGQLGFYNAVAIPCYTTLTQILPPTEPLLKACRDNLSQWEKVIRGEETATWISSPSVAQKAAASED

As for `CCc1cccc(NC(=O)N2CCc3nc(-c4cccnc4)nc(OC4CCN(C)CC4)c3C2)c1` [Compound 1-7, N-(3-ethylphenyl)-4-[(1-methylpiperidin-4-yl)oxy]-2-pyridin-3-yl-7,8-dihydropyrido[4,3-d]pyrimidine-6(5H)-carboxamide], the Ki came to 14 nM. For `CC(C)Oc1nc(-c2cccnc2)nc2c1CN(C(=O)Nc1ccc3ccn(C)c3c1)CC2` [Compound 1-8, 4-isopropoxy-N-(1-methyl-1H-indol-6-yl)-2-pyridin-3-yl-7,8-dihydropyrido[4,3-d]pyrimidine-6(5H)-carboxamide], the Ki amounted to 9.2 nM. Next, `Cc1ccc(NC(=O)N2CCc3nc(-c4ccc(Cl)nc4)nc(OC(C)C)c3C2)cn1` [Compound 1-11, 2-(6-chloropyridin-3-yl)-N-(6-methylpyridin-3-yl)-4-(propan-2-yloxy)-7,8-dihydropyrido[4,3-d]pyrimidine-6(5H)-carboxamide]: 0.6 nM; `COc1cc(NC(=O)N2CCc3nc(-c4ccc(Cl)nc4)nc(O[C@@H]4CCOC4)c3C2)ccn1` [Compound 1-13, 2-(6-chloropyridin-3-yl)-N-(2-methoxypyridin-4-yl)-4-[(3R)-tetrahydrofuran-3-yloxy]-7,8-dihydropyrido[4,3-d]pyrimidine-6(5H)-carboxamide]: 0.84 nM; `Cc1ccc(C(=O)N2CCc3nc(-c4ccc(Cl)nc4)nc(OC(C)C)c3C2)cn1` [Compound 1-14, [2-(6-chloropyridin-3-yl)-4-(propan-2-yloxy)-7,8-dihydropyrido[4,3-d]pyrimidin-6(5H)-yl](6-methylpyridin-3-yl)methanone]: 9.9 nM. In the case of `CC(C)Oc1nc(-c2ccc(Cl)nc2)nc2c1CN(S(=O)(=O)c1cccnc1)CC2` [Compound 1-17, 2-(6-chloropyridin-3-yl)-4-(propan-2-yloxy)-6-(pyridin-3-ylsulfonyl)-5,6,7,8-tetrahydropyrido[4,3-d]pyrimidine] it was 0.63 nM. Next, `CC(C)Oc1nc(-c2cccnc2)nc2c1CN(c1nc3ccccc3o1)CC2` [Compound 1-18, 6-(1,3-benzoxazol-2-yl)-4-(propan-2-yloxy)-2-(pyridin-3-yl)-5,6,7,8-tetrahydropyrido[4,3-d]pyrimidine]: 15.9 nM; `CC(C)Oc1nc(-c2ccc(Cl)nc2)nc2c1CN(C(=O)c1cn(C)cn1)CC2` [Compound 1-19, [2-(6-chloropyridin-3-yl)-4-(propan-2-yloxy)-7,8-dihydropyrido[4,3-]pyrimidin-6(5H)-yl](1-methyl-1H-imidazol-4-yl)methanone]: 4.55 nM; `COc1ccc2[nH]c(C(=O)N3CCc4nc(-c5cccnc5)nc(OC(C)C)c4C3)cc2n1` [Compound 1-20, (5-methoxy-1H-pyrrolo[3,2-b]pyridin-2-yl)[4-(propan-2-yloxy)-2-(pyridin-3-yl)-7,8-dihydropyrido[4,3-d]pyrimidin-6(5H)-yl]methanone]: 0.8 nM. For `CC(C)Oc1nc(-c2ccc(Cl)nc2)nc2c1CN(C(=O)Nc1cnn(C)c1)CC2` [Compound K-2, 2-(6-chloropyridin-3-yl)-N-(1-methyl-1H-pyrazol-4-yl)-4-(propan-2-yloxy)-7,8-dihydropyrido-[4,3-d]pyrimidine-6(5H)-carboxamide], the Ki came out at 0.9 nM. Turning to `Cc1ccc(NC(=O)N2CCc3nc(N4CCCC4)nc(OC(C)C)c3C2)cn1` [Compound N-5, 4-isopropoxy-N-(6-methylpyridin-3-yl)-2-pyrrolidin-1-yl-7,8-dihydropyrido[4,3-d]pyrimidine-6(5H)-carboxamide], the Ki is 31.4 nM.

Consider `COCCOc1nc(-c2ccc(Cl)nc2)nc2c1CN(C(=O)c1cnn3ccccc13)CC2` [Compound O-2, [2-(6-chloropyridin-3-yl)-4-(2-methoxyethoxy)-7,8-dihydropyrido[4,3-d]pyrimidin-6(5H)-yl](pyrazolo[1,5-a]pyridin-3-yl)methanone], for which the Ki was 0.93 nM. Next, `COC[C@H](C)Oc1nc(-c2ccc(Cl)nc2)nc2c1CN(C(=O)Nc1ccc(C)nc1)CC2` [Compound P-5, 2-(6-chloropyridin-3-yl)-4-{[(2S)-1-methoxypropan-2-yl]oxy}-N-(6-methylpyridin-3-yl)-7,8-dihydropyrido[4,3-d]pyrimidine-6(5H)-carboxamide]: 0.92 nM.

Take `COCCOc1nc(-c2ccc(Cl)nc2)nc2c1CN(C(=O)c1ncn3ccccc13)CC2` [Compound Q-2, [2-(6-chloropyridin-3-yl)-4-(2-methoxyethoxy)-7,8-dihydropyrido[4,3-d]pyrimidin-6(5H)-yl](imidazo[1,5-a]pyridin-1-yl)methanone]: the Ki stood at 0.99 nM.

On to `COCCOc1nc(-c2ccc(C)nc2)nc2c1CN(C(=O)c1cnn3ccccc13)CC2` [Compound R-1, 4-(2-methoxyethoxy)-2-(6-methylpyridin-3-yl)-6-(pyrazolo[1,5-a]pyridin-3-ylcarbonyl)-5,6,7,8-tetrahydropyrido[4,3-d]pyrimidine], for which the Ki was determined as 12.5 nM. With `COCCOc1nc(-c2ccc(Cl)nc2)nc2c1CN(C(=O)Oc1ccccc1)CC2` [Compound S-1, phenyl 2-(6-chloropyridin-3-yl)-4-(2-methoxyethoxy)-7,8-dihydropyrido[4,3-d]pyrimidine-6(5H)-carboxylate], the Ki was 16.8 nM. Consider `COC[C@H](C)Oc1nc(-c2ccc(Cl)nc2)nc2c1CN(C(=O)c1ncn3ccccc13)CC2` [Compound T-1, [2-(6-chloropyridin-3-yl)-4-{[(2S)-1-methoxypropan-2-yl]oxy}-7,8-dihydropyrido[4,3-d]pyrimidin-6(5H)-yl](imidazo[1,5-a]pyridin-1-yl)methanone], for which the Ki amounted to 0.43 nM.
